Reference: patent US20250092093A1, “Androgen receptor protein degradation-inducing peptides for prostate cancer treatment” (priority 2023, published 2025)
Positions count from the first letter of the chain named. Each block holds one compound with its values, some of them ahead of it. Ends that are not written are not given here. * marks the point of attachment. Myristoyl = CCCCCCCCCCCCCC(=O)*

Assays:
AR protein [1] = target: T1, AR protein (Homo sapiens, UniProt P10275); conditions: reported in the literature [3]; cited from earlier work
T1 sequence (P10275 1-920): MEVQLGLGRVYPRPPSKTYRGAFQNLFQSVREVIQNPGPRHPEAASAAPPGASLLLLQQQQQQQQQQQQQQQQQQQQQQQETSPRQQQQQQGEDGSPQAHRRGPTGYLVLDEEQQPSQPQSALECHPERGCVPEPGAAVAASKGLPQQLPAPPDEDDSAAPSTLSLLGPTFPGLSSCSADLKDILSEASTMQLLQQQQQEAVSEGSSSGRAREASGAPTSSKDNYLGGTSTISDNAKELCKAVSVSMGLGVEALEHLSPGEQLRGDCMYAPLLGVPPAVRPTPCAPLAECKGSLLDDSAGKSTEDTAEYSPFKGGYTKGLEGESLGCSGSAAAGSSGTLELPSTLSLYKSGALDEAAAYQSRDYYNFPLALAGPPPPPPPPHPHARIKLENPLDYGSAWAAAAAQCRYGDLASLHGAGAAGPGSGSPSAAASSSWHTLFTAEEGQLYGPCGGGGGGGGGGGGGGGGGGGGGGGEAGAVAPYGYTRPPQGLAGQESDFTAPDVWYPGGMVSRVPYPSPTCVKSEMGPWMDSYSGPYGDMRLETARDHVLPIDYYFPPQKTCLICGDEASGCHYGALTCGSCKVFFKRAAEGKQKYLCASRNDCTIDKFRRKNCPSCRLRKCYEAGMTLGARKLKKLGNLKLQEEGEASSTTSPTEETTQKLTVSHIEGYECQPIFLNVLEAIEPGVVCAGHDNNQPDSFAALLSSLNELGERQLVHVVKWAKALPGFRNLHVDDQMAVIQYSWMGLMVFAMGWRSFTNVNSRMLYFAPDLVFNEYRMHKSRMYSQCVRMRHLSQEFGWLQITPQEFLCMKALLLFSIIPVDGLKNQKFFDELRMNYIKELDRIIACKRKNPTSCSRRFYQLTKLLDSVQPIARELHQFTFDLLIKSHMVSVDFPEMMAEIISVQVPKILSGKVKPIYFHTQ

AR protein [2] = target: T2, AR protein (Homo sapiens, UniProt P10275, T878A); assay: AR protein level by western blot in C4-2B cells; format: cell-based; conditions: 10 micro-M
T2 construct: C4-2B cells were treated with peptides (10 micro-M) for 24 h as indicated, and AR protein levels were assessed by western blots; endogenous in cells; host or cells: C4-2B
T2 sequence (P10275 1-920 T878A): T1 sequence (P10275 1-920) with T878A
Description: (§1) A. C4-2B cells were treated with peptides (10 micro-M) for 24 h as indicated, and AR protein levels were assessed by western blots. B. C4-2B cells were treated with peptides and harvested for western blot assay with an anti-PARP antibody. Actin blot served as a protein loading control. C. Flow cytometry analysis of subG1/GO cell cycle population in C4-2B cells after peptide treatment (10 micro-M) in 2% charcoal-stripped FBS for 24 h. Data represents two experiments. The asterisk indicates a significant difference compared to the DSMO control (p<0.05, Student t-test).
A. Peptide analogs were synthesized as listed in the top panel. The myristylation sequence was conjugated to the N-terminal of the peptide for penetrating the plasma membrane. B. Prostate cancer C4-2B cells were treated with the agents at a concentration of 10 micro-M for 48 h. Cells were harvested for western blot assay with AR antibody (clone PG21). The Actin blot served as a protein loading control. […]
We further characterized the ARi14 peptide for its core sequence of action. The ARi14 peptide was chopped into two fragments, the 7-mer ARi7 peptide (EAAAYQS) and 8-mer ARi8 peptide ([…]), and their AR degradation inducing ability was compared to the original 14-mer peptide (FIG. 3). These peptides were synthesized with an N-terminal myristylation signal to facilitate cellular uptake. […]

AR protein [3] = target: T1, AR protein; assay: AR protein level by western blot in LAPC-4 cells; format: cell-based; conditions: 10 micro-M, 24 h, 2% charcoal-stripped FBS
Description: (§2) A. ARi14 peptide was fused with the KDM4A CPP sequence via a short link (KDM4A-ARi14). This fused peptide was labeled with FITC fluorescent dye. B. LAPC-4 cells were treated with the solvent, or the peptides as indicated at 10 micro-M in 2% charcoal-striped FBS-supplied media for 24 h. Cellular proteins were subjected to a western blot with an anti-AR antibody (clone PG21). Actin blot served as a protein loading control. C. Microscopic images were shown for cell viability. Note: white arrows indicate a cluster of dying cells loaded with fluorescent-labeled peptides.
(§3) To achieve a better intracellular distribution of the peptide, a cellular penetrating peptide (CPP) derived from the KDM4A protein was fused to the N-terminal of the ARil4 peptide via a short link sequence GGGS (FIG. 2A).

LAPC-4 cells = assay: Cell viability / cell death by microscopic images in LAPC-4 cells; format: cell-based; conditions: 10 micro-M, 24 h
Description: as §2, §3

C4-2B cells [4] = assay: Flow cytometry analysis of subG1/GO cell cycle population in C4-2B cells; format: cell-based; conditions: Enzalutamide-resistant C4-2B cells, 10 micro-M, 24 h, 2% charcoal-stripped FBS
Description: as §1
(§4) We further characterized the ARi14 peptide for its core sequence of action. The ARi14 peptide was chopped into two fragments, the 7-mer ARi7 peptide (EAAAYQS) and 8-mer ARi8 peptide ([…]), and their AR degradation inducing ability was compared to the original 14-mer peptide (FIG. 3). These peptides were synthesized with an N-terminal myristylation signal to facilitate cellular uptake.

C4-2B cells [5] = assay: Apoptotic cell death by PARP cleavage western blot in C4-2B cells; format: cell-based; conditions: N-terminal myristylated peptides
Description: as §1, §4

[6] = N-terminal myristylated peptides, 24 h

AR protein levels (AR protein [2]; myristylated peptides, 48 h): largely reduced
Compound: ARi10: new analog of ARi8, myristylation sequence at the N-terminal (Myristoyl-YQSRDYYNFP)

AR protein level (AR protein [3]): no apparent effect
AR reduction (AR protein [2]; [6]): 78%
Compound: EAAAYQSRDYYNFP [ARi14, decoy peptide derived from the AR N-terminal domain, amino acids 355-368; myristylated form used in b32]
cell death response / cell viability (LAPC-4 cells): no apparent effect
cell cycle arrest at the subG1/GO phase (C4-2B cells [4]): induced cell cycle arrest

Further lines, the compound ahead of its results:

Compound: COc1ccc(/C=C/C(=O)/C=C(O)/C=C/c2ccc(OC)c(OC)c2)cc1OC [ASC-J9]
AR protein degradation in prostate cancer cells (AR protein [1]): induced AR protein degradation

Compound: EAAAYQS [ARi7, 7-mer fragment of ARi14, synthesized with an N-terminal myristylation signal]
impact on the AR protein level (AR protein [2]; [6]): no impact

Compound: SRDYYNFP [ARi8, 8-mer fragment of ARi14, synthesized with an N-terminal myristylation signal]
AR reduction (AR protein [2]; [6]): 92%
apoptotic cell death evidenced by PARP cleavage (C4-2B cells [5]): more profound apoptotic cell death than ARi14
cell cycle arrest at the subG1/GO phase (C4-2B cells [4]): induced cell cycle arrest
